{
  "source": "paper PMC8412337",
  "about": "“Alpha-single chains of collagen type VI inhibit the fibrogenic effects of triple helical collagen VI in hepatic stellate cells” (PLoS ONE, 2021)",
  "key": {"primary rat HSCs [1]": {"system": "primary rat HSCs", "experiment": "Spreading and survival after serum withdrawal, phase contrast microscopy", "assay_type": "cell-based", "details": "within 24 h; medium lacking FBS; 30 μg/ml collagen; three independent experiments", "protocol": "Activated HSC (third passage) were serum starved for 24 h in standard medium without FBS (starving medium), followed by dissociation with 500 μl 0.05% trypsin-EDTA (Biochrom, Berlin, Germany) and neutralization with 30 ml starving medium containing 1 g/l soybean trypsin inhibitor and 1 g/l ovalbumin. Alternatively, cells were scraped carefully with a cell-scraper (Costar, Cambridge, MA, USA) to exclude any potential effect of trypsin. […] For quantification of spreading, cells that had attached were counted 12 hours after plating and spreading efficiency was determined as percentage of plated cells in each group. De-novo DNA synthesis and apoptosis were assessed by morphological criteria, Cell death detection ELISA and FACS analysis as described below. […] After blocking the cells 1h with DMEM+1% FBS, the cells were incubated with primary antibodies against a-actin (Sigma-Aldrich, Taufkirchen, Germany, #A2547; dilution 1:200) and GFAP (Sigma-Aldrich, #G9269; dilution 1:20) followed by a washing step with PBS and the incubation with fluorescence-labeled secondary antibodies (Alexa Fluor 546 & Alexa Fluor 488, Molecular Probes, Eugene, USA, #A11030 & #A11034; dilution 1:100). […]"}, "primary rat HSC [2]": {"system": "primary rat HSC", "experiment": "DNA laddering (agarose gel electrophoresis)", "assay_type": "cell-based", "details": "after 24 h; 30 μg/ml CVI; serum-starved primary rat HSC", "protocol": "Cells were treated 24 h with 0% FBS, CI, CVI or 10% FBS. Equal cell numbers (1.5x10^6) were used to detect oligonucleosomes using the Apoptotic DNA Ladder Kit (Boehringer Mannheim, Germany) according to the manufacturer’s instructions. The isolated DNA from each group was electrophoresed on a 1.5% Agarose-Gel at 75 V for 1.5 hours, stained with ethidium bromide and visualized via an UV light source (302 nm)."}, "primary rat HSC [3]": {"system": "primary rat HSC", "experiment": "Cell Death Detection ELISA (oligonucleosomal DNA fragments)", "assay_type": "cell-based", "details": "OD of sample divided by OD of 10% FBS group, three independent experiments", "protocol": "10^5 cells were seeded in 6-well plates and treated with starving medium or medium plus CI, CVI or 10% FBS. After 24 or 48 h floating and adherent cells were pooled, and lysed with 500 μl of 1% SDS, 10 mM Tris, pH 7.4 (lysis buffer), for 30 min at 4°C. Lysed cells were transferred to 1.5 ml Eppendorf tubes and centrifuged at 13,000 rpm for 20 min, to separate low molecular weight DNA (oligonucleosome-sized fragments derived from apoptotic cells) from high molecular weight DNA (from viable cells). 400 μl of the supernatant containing oligonucleosomes were transferred to another Eppendorf tube and diluted 1:5 with lysis buffer. 100 μl aliquots were used for the Cell Death Detection ELISA, which was performed according to the manufacturer’s instructions (Boehringer Mannheim, Germany). In brief, antibodies against histones were coated onto 96-wells, 100 μl lysate-samples containing oligonucleotides and histones were added and incubated for one hour. After washing, wells were incubated with anti-double strand DNA antibody coupled to peroxidase for one hour. After reaction with peroxidase substrate, absorbance was measured at 405 nm using an ELISA reader. Background values (lysis-buffer alone) were subtracted, and results are shown as enrichment factor [enrichment factor: OD (optical density) of the sample (apoptotic cells) divided by the OD of the corresponding control (viable cells, 10% FBS-group). A defined positive control was prepared using a hypertonic buffer, containing 10 mM Tris, 400 mM NaCl, 5 mM CaCl2 and 10 mM MgCl2, instead of starving medium."}, "primary rat HSCs [4]": {"system": "primary rat HSCs", "experiment": "[3H]-thymidine incorporation, de-novo DNA synthesis", "assay_type": "cell-based", "details": "primary rHSCs"}, "[5]": {"system": "Bax and Bcl-2 in activated HSCs", "experiment": "Western-blot analysis of Bax and Bcl-2", "assay_type": "cell-based, rat", "details": "densitometry, three independent experiments", "protocol": "Dislodged cells were centrifuged at 800 x g/10 min and lysed with 100 μl lysis buffer. The protein concentration was determined using NanoOrange® Protein Quantitation Kit (Life Technologies) according to the manufacturer’s instructions. Briefly, protein solutions were mixed with the diluted NanoOrange reagent in 1.5 ml polypropylene tubes and heated at 95°C for 10 min in a thermomixer (Peqlab, Erlangen, Germany). Tubes were centrifuged and 200 μl of each sample were transferred to a black 96 well flat-bottom plate (Greiner BioOne, Frickenhausen, Germany). The emitted fluorescence was assessed at 570 nm in a SpectraMax Gemini EM (Molecular Devices, Biberach an der Riß, Germany). Protein concentrations were calculated from a bovine serum albumin standard curve. Equivalent amounts (10–50 μg) of protein were used in […]. Sample buffer (1:1) was added and the aliquots (20 μl final volume) were boiled for 5 min and subjected to 12% SDS-PAGE. After blocking for 1 h at room temperature in 10 mmol Tris-HCl, pH 7.5, 100 mmol NaCl, containing 0.1% Tween 20 and 3% bovine serum albumine (BSA), nitrocellulose-membranes were incubated either with polyclonal rabbit anti-rat antibodies to Bax (1:1000, sc-493), Bcl-2 (1:1000, sc783, both Santa Cruz, Santa Cruz, USA), α-actin (1:4000, A2547, Sigma) or β-actin (1:10,000, A5441, Sigma). Membranes were then washed in 10 mmol Tris-HCl, 100 mmol NaCl, 0.1% Tween 20, pH 7.5, and incubated with anti-rabbit IgG coupled to peroxidase (1:1000, A4416, Sigma) for 1 h at room temperature or directly developed (RC20H). Bands were detected with the ECL chemiluminescence reagent (Amersham-Pharmacia, Freiburg, Germany). After stripping in 0.1 M glycin-HCl, pH 2, for 20 min at room temperature, membranes were reprobed with appropriate primary and secondary antibodies. Band intensities were analyzed by densitometry and normalized to β-actin."}},
  "data": [
    {"substance": "CVI: Human collagen VI isolated from placentas by pepsin digestion; triple helical, soluble", "values": [
      {"measurement": "suppression of growth factor withdrawal-induced apoptosis (attachment, cell shrinkage)", "setting": "primary rat HSCs [1]", "value": "potently suppressed"},
      {"measurement": "apoptosis-associated DNA laddering", "setting": "primary rat HSC [2]", "value": "only faint"},
      {"measurement": "enrichment factor of oligonucleosomal fragments", "setting": "primary rat HSC [3]; after 24 hours", "value": 2},
      {"measurement": "enrichment factor of oligonucleosomal fragments", "setting": "primary rat HSC [3]; after 48 hours", "value": 6},
      {"measurement": "de-novo DNA synthesis ([3H]-thymidine incorporation)", "setting": "primary rat HSCs [4]; CVI at 10 μg/ml, within 24 hours, three independent experiments", "value": "stimulated a robust de-novo DNA synthesis"},
      {"measurement": "de-novo DNA synthesis ([3H]-thymidine incorporation) at increasing concentration", "setting": "primary rat HSCs [4]; CVI from 10 μg/ml up to 100 μg/ml, concentration dependent", "value": "equaling the effects of 10% FBS"},
      {"measurement": "Bax to Bcl-2 ratio", "setting": "[5]; 24 hours culture after serum starvation", "value": 1.0},
      {"measurement": "Bax protein level, fold lower compared to the medium or CI group", "setting": "[5]; 24 hours, p<0.05", "value": "6-7 fold"}
    ]}
  ]
}
